From patent publication US12486260B2, “Indazolyl-isoxazole derivatives for the treatment of diseases such as cancer” (Merck Patent GmbH, priority 2019, dated 2025)

Key:
[1] = biological target: T1, c-Kit(V654A) (Homo sapiens, UniProt P10721, V654A); experiment: c-Kit(V654A) kinase assay (33P-ATP filter binding); format: biochemical; conditions: Table 2, isoxazole vs corresponding triazole derivatives; 200 μM ATP, 40 minutes; read-out: Inhibition (IC50) of c-Kit (V654A)
T1 construct: amino acids 544-end; GST (N)
Procedure: • HPLC/MS: Agilent 1200/6100 • eluent A: water+0.05% formic acid • eluent B: acetonitrile+0.04% formic acid • column: Chromolith HR RP-18e; 50-4.6 mm • flow rate: 3.3 ml/min • gradient: 0%→100% B: 0.0→2.0 min 100% B: 2.0→2.5 min • UV detection: 220 nm • MS detection: 65-800 amu positive HPLC/MS Conditions B: • HPLC/MS: Agilent 1200/6100 • eluent A: water+0.05% formic acid • eluent B: acetonitrile+0.04% formic acid • column: Kinetex XB-C18; 2.6 μm; 50-4.6 mm • flow rate: 2.5 ml/min • gradient: 0%→100% B: 0.0→1.4 min 100% B: 1.4→2.0 min • UV detection: 220 nm • MS detection: 65-800 amu positive UPLC/MS Conditions: • UPLC/MS: Waters Acquity/SQD • eluent A: water+0.05% formic acid • eluent B: acetonitrile+0.04% formic acid • column: Kinetex XB-C18; 1.7 μm; 50-2.1 mm • flow rate: 0.9 ml/min • gradient: 2%→100% B: 0.0→1.0 min 100% B: 1.0→1.3 min • UV detection: 220 nm/254 nm/MaxPlot/TotalPlot • MS detection: 61-800 amu positive Assays c-Kit(V654A) Assay:
c-Kit(V654A) (N-terminal GST-tagged, recombinant human c-Kit, amino acids 544-end containing the V654A mutation) is incubated with 8 mM MOPS pH 7.0, 0.2 mM EDTA, 250 μM GGMEDIYEFMGGKKK, 10 mM MgAcetate and [gamma-33P-ATP] (specific activity approx. 500 cpm/pmol, concentration 200 μM). The reaction is initiated by the addition of the MgATP mix. […]

[2] = biological target: T2, mutant cKIT (Δ560-576 and V654A) in GIST430/654 cell line (Homo sapiens, UniProt P10721, DEL560-576/V654A); experiment: cellular testing of cKIT mutant inhibitors: cKIT autophosphorylation in GIST430/654 cells (Luminex); format: cell-based; conditions: Table 2, isoxazole vs corresponding triazole derivatives; phospho-Y307-cKIT, 45 min; read-out: Inhibition (IC50) of GIST 430/654
T2 construct: GIST430/654 cell line expressing mutated constitutively active cKIT receptor tyrosine kinase; endogenous in cells; host or cells: GIST430/654
Procedure: Assay Principle for Cellular Testing of cKIT Mutant Inhibitors
The GIST430/654 cell line expressing mutated constitutively active cKIT receptor tyrosine kinase (Δ560-576 and V654A) was employed for assessing cellular potency of compounds. Cellular activity of mutant cKIT was determined by the degree of cKIT autophosphorylation at tyrosine 307 using a Luminex-based bead assay. GIST430/654 cells were plated with 25,000 cells per well of a 96-well plate in 100 μl medium (85% IMDM/15% FCS supplemented with 100 nM Imatinib). At the following day compounds were added in a serial dilution for 45 min. Then, cells were lysed with 90 μl lysis buffer (20 mM Hepes pH 7.5, 200 mM NaCl, 1.5 mM MgCl2×6H2O, 0.4 mM EDTA, 1% Triton-X-100, 1% Phosphatase-Inhibitor II, 20 mM β-Glycerolphosphat, 0.1% Protease-Inhibitor Cocktail III, 0.01% Benzonase) und lysates were cleared by centrifugation through a 96-well filter plate (0.65 μm). Samples were incubated with Luminex-beads which were coupled with an anti-total cKIT antibody overnight at 4° C. under gentle agitation. […] The amount of phospho-Y307-cKIT was determined in a Luminex 200 instrument measuring 100 events per well within 60 seconds.
Counts from samples treated with compounds were calculated as percent of control from solvent treated (0.3% DMSO) samples. Dose-response curves were fitted and IC50 values were determined using Genedata Screener software.

T1 sequence (P10721 544-976 V654A): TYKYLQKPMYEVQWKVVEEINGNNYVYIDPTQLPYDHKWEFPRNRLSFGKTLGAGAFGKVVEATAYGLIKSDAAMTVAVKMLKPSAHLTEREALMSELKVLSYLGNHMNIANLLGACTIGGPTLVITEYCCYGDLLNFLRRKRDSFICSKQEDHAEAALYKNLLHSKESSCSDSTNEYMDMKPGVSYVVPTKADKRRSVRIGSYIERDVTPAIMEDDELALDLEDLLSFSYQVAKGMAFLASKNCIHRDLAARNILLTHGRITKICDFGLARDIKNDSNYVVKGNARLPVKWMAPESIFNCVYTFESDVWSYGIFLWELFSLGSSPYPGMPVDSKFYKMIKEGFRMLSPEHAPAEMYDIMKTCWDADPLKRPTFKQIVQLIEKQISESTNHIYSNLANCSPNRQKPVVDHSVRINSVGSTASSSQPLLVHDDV
T2 sequence (P10721 with tags, fused parts or gaps DEL560-576/V654A): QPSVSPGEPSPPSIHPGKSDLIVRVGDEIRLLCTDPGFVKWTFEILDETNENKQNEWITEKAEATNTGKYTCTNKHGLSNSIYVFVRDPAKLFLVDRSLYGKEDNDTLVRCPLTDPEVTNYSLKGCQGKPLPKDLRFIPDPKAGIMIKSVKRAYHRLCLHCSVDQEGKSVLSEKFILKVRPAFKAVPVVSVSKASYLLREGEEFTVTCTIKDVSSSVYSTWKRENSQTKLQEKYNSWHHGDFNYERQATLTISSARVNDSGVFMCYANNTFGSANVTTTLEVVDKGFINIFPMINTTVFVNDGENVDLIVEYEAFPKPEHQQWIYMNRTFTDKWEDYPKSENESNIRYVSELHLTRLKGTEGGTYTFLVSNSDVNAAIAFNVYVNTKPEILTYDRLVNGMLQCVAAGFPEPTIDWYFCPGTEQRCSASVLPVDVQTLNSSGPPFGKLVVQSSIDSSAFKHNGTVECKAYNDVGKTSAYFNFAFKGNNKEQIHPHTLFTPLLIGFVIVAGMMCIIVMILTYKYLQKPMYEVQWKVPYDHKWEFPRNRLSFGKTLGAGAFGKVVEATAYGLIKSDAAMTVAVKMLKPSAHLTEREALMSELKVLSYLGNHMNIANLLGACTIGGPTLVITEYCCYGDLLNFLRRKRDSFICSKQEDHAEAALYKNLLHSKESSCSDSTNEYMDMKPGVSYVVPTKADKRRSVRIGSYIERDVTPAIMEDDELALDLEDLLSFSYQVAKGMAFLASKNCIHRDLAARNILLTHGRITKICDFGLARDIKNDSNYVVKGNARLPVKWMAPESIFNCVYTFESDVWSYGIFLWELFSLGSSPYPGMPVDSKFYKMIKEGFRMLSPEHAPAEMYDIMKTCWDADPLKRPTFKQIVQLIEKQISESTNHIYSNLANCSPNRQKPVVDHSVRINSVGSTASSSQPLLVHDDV

**Q.** Which results are given for `COCCOc1cc2[nH]nc(-c3cn(-c4ccc(C(=O)N5CC(N6CCOCC6)C5)cc4)nn3)c2cc1F`?
**A.** IC50 [1]: 1.1 nM; IC50 [2]: 610 nM

**Q.** What does the source list for `COCCOc1cc2[nH]nc(-c3cn(-c4ccc(C(=O)N5CC[C@@H]5C(C)(C)O)cc4)nn3)c2cc1F`?
**A.** IC50 [1]: 5.1 nM; IC50 [2]: 220 nM
